The values that follow come from patent US20080227851A1, “L[…] L[…]” (priority 2007, published 2008).

≈ marks a conversion by molar mass, not a printed value.

The test system of data set [1] is SK-OV-3 (ovarian carcinoma) cell line. To be noted: cited from earlier work.
For data set [2], the system named is MDA-MB-435. The conditions noted are these: cited from earlier work.
Data set [3] deals with A10 cells. To be noted: 2-20 μM; cited from earlier work.
The subject of data set [4] is SKVLB-1. To be noted: cited from earlier work; for Resistance factor (SKVLB-1/SK-OV-3): ratio of IC50 SKVLB-1/SK-OV-3.
Data set [5] has as its system KB cells. To be noted: cited from earlier work.
The subject of data set [6] is human umbilical vein endothelial cells (HUVEC). The conditions noted are these: read-out: IC50, inhibition of HUVEC proliferation; cited from earlier work.
Data set [7] relates to tubulin polymer. To be noted: radiolabeled Taxol; cited from earlier work.
In data set [8] the test system is human umbilical vein endothelial cells (HUVEC). The conditions noted are these: cited from earlier work.
Data set [9] has as its system purified tubulin. To be noted: cited from earlier work.
Data set [10] deals with MDA-MB-435 (human breast adenocarcinoma) cell line. To be noted: cited from earlier work.
The conditions of data set [11]: 0.01 N solution of HCl in acetone; cited from earlier work.
For data set [12], the system named is human breast carcinoma MDA-MB-435. Briefly: sulforhodamine assay, proliferation of human tumor cells, MDA-MB-435. Format: cell-based. To be noted: MDA-MB-435, sulforhodamine assay. How it is done:
Laulimalide analogs disclosed herein were evaluated for the ability to inhibit the proliferation of human tumor cells using the sulforhodamine assay format (Mooberry et al., Cancer Research, 1999, 59, 653-660). The two cells lines selected were the human breast carcinoma MDA-MB-435 and the corresponding MDR cell line NCI/ADR, which overexpresses the PGP efflux pump protein.

Setting [13] is: SKVLB-1 (P-gp overexpressing MDR).

For the molecule `C=C1C[C@H](C)C[C@@H]2CC=C[C@@H](C/C=C\C(=O)O[C@H]3C[C@@H](O[C@H]3/C=C/[C@@H]3CC(C)=CCO3)[C@@H](O)[C@@H](O)C1)O2` [Isolaulimalide, isolaulimalide], the IC50 in data set [1] is 2570 ± 290 nM; in data set [2], 1970 ± 97 nM; in [4] (setting [13]) it was 2650 ± 1380 nM. Further, the microtubule bundling result in data set [3] was “no microtubule bundles were observed”. In addition, the “Resistance factor (SKVLB-1/SK-OV-3)” value in [4] was 1.03. Moreover, the “IC50, cytotoxic to KB cells” value in data set [5] is above 0.2 µg/mL.
In the case of `C=C1C[C@H](C)C[C@@H]2CC=C[C@@H](C/C=C\C(=O)O[C@H]([C@@H](O)/C=C/[C@@H]3CC(C)=CCO3)C[C@@H]3O[C@H]3[C@@H](O)C1)O2` [Laulimalide, laulimalide], the IC50 in data set [6] is 4 nM; in data set [1], 11.5 ± 0.53 nM; in data set [2] it was 5.73 ± 0.58 nM; in [4] (setting [13]) it was 1210 ± 490 nM; in data set [12] it was 5.7 ± 0.6 nM. The “competition with Taxol binding to tubulin polymer” value in [7] is on record as “does not compete with Taxol”. In addition, in [8], the “concentration inhibiting tubule formation and VEGF-induced HUVEC migration” value is listed as “subnanomolar”. Further, the “polymerization of purified tubulin” value in data set [9] is on record as “caused the polymerization of purified tubulin”. For the same molecule, in [3], the microtubule bundling entry is given as “caused bundling of microtubules similar to that induced by Taxol”. Also, the “Resistance factor (SKVLB-1/SK-OV-3)” value in [4] is reported as 105. In data set [10], the cell cycle arrest result was “cell cycle arrest at the G2/M transition”. Further, the “time to complete acid-catalyzed decomposition to isolaulimalide” value in data set [11] is recorded as “four”. For the same molecule, in [5], the “IC50, cytotoxic to KB cells” value is 0.015 µg/mL (≈ 0.0291 µM).
Regarding `CC(=O)O[C@H]1C(=O)[C@@]2(C)[C@H]([C@H](OC(=O)c3ccccc3)[C@]3(O)C[C@H](OC(=O)[C@H](O)[C@@H](NC(=O)c4ccccc4)c4ccccc4)C(C)=C1C3(C)C)[C@]1(OC(C)=O)CO[C@@H]1C[C@@H]2O` [Taxol, paclitaxel], the IC50 in [1] was 1.71 ± 1.07 nM; in data set [2] it was 1.02 ± 0.25 nM; in data set [4] (setting [13]), above 100000 nM. The “IC50 (nM)” value in [4] (setting [13]) is recorded as “completely ineffective”. Further, the “Resistance factor (SKVLB-1/SK-OV-3)” value in data set [4] is on record as above 58480.
